In one data set the test system is MCF-7 cells. Kind of data set: Cell toxicity assay, MCF-7. The data set is classed as cell-based. The conditions noted are these: 40 μM, treated one hour then washed away, viability at 24 and 48 hours. The method, then: (§1) The cell toxicity of the peptides was then examined. HEK, MCF-7, and HeLa were used. Cells were treated with S-TBS 40 μm for one hour. The S-TBS was then washed away and the viability measured at 24 and 48 hours. No impact on HEK, MCF-7, and HeLa cell growth was observed.

The next data set has as its target T1, talin rod R7R8 domains (Mus musculus, UniProt P26039).
T1 construct: talin rod R7R8 and talin head (residues 1-430) were measured using fluorophore-labeled peptides and recombinantly expressed, purified talin proteins; made in house
Kind of data set: Fluorescent polarization (FP) binding assay, talin rod R7R8. The conditions noted are these: S-TBS versus TBS, from FP Kd values. The method, then: (§2) To assess the binding affinities of S-TBS with talin, the Kd of TBS and S-TBS peptides with talin rod R7R8 and talin head (residues 1-430) were measured using fluorophore-labeled peptides and recombinantly expressed, purified talin proteins by FP assays. […] This gain of affinity may be attributed to the C8 staple as it stabilizes the helical structure of TBS, and the enhanced hydrophobic interaction between S-TBS and talin rod. The enhanced binding of S-TBS to talin further validates the design strategy of using stapled peptides as a potent competitive inhibitor.
(§3) Fluorescent Polarization: Mixtures were prepared of purified talin proteins at a series concentration (R7R8: 0.2 μM to 20 μM; THD/b3-THD: 5 μM to 100 μM), or buffer only, with 20 nM FITC-labeled S-TBS (New England Peptide) in a buffer containing 20 mM HEPES, pH 7.5, 100 mM NaCl, and 2 mM DTT. After five minutes of incubation, 20 μl of the reaction mix was added to individual wells of a 384-well assay plate (Corning) and then measured fluorescence polarization at room temperature using a plate reader. A […] as emission polarization filters. FP signals were normalized against buffer-only background and then fit to a single-site (saturating) binding model using SigmaPlot (Systat Software).

The subject of the next data set is HEK-293 cells. The data set can be described thus: Cell toxicity assay, HEK-293. The data set is classed as cell-based. The conditions noted are these: 40 μM, treated one hour then washed away, viability at 24 and 48 hours. The procedure: as §1
Data set [1] deals with T2, talin head (residues 1-430) (Mus musculus, UniProt P26039).
T2 construct: talin rod R7R8 and talin head (residues 1-430) were measured; made in house
The data set can be described thus: Fluorescent polarization (FP) binding assay, talin head. The procedure: as §2, §3

A further data set deals with CHO cell. The data set can be described thus: Cell toxicity, CHO cell growth. The data set is classed as cell-based.
The test system of a further data set is HeLa cells. The data set can be described thus: Cell toxicity assay, HeLa. In kind it is cell-based. The conditions noted are these: 40 μM, treated one hour then washed away, viability at 24 and 48 hours. The method, then:
as §1

The subject of a further data set is CHO-A5 cells. Kind of data set: Cell permeability assay (flow cytometry uptake of fluorophore-labelled peptide). In kind it is in vitro ADME. The method, then: Assessing membrane permeability: CHO-A5 cells were treated with FAM-labelled WT-TBS (1, 10, and 50 μM), or with FITC-labelled stapled-TBS (1, 10, and 50 μM), and incubated for 30 minutes at 37° C. The cells were washed twice with phosphate-buffered saline (PBS), harvested in trypsin-EDTA, and centrifuged at 2,000 rpm for 5 minutes. The cells were resuspended in PBS and quantified with an LSR flow cytometer using 30,000 cells per measurement.
A common challenge for peptidomimetic drugs that target intracellular proteins is the poor cell membrane permeability. To assess the effect of the C8 staple on cell permeability, FITC-labeled S-TBS were incubated with CHO cells at various concentration and examined S-TBS uptake by flow cytometry. […] The assay was then performed using lower doses of peptides and quantified the signals for statistical analyses. […] In contrast, TBS requires a concentration of at least 5 μM for cell uptake (FIG. 3, Panel B).
Cell permeability assay: CHO-A5 cells were plated in 6-well dishes, and then treated with fluorophore labeled TBS or S-TBS peptides at indicated concentrations for 30 minutes at 37° C. The cells were then washed twice with phosphate-buffered saline (PBS), detached by adding a mixture of trypsin and […] (“trypsin-EDTA”) and harvested by spinning at 2,000 rpm for 5 minutes. The cells were resuspended in PBS and quantified with an LSR flow cytometer (525/50 filter, 488 nm laser) using 30,000 cells per measurement.
On the technique in general: A flow cytometer gives signals particle by particle.

Data set [2] deals with integrin αIIbβ3. Kind of data set: Integrin activation assay, inactive talin head mutant THD-W359A. The data set is classed as cell-based. The conditions noted are these: CHO-A5 cells transfected with THD-W359A; TBS 100 μM, S-TBS 10 and 100 μM; PAC1 flow cytometry. The method, then:
(§4) Assessing integrin activation: CHO-A5 cells were transfected with GFP-tagged talin-head domain (residues 1-430, WT or W359A) and incubated for 24 hours at 37° C. The cells were subsequently treated with WT-TBS at 100 μM or Staple-TBS (at 10 and 100 μM) for 30 minutes at 37° C. and washed twice with PBS, harvested in trypsin-EDTA, and centrifuged at 2,000 rpm for 5 minutes. The cells were incubated in Tyrode's buffer (136.9 mM NaCl, 10 mM HEPES, 5.5 mM glucose, 11.9 mM NaHCO3, 2.7 mM KCl, 0.5 mM CaCl2), 1.5 mM MgCl2, and 0.4 mM NaH2PO4, pH 7.4) containing PAC1 antibody for 1 hour at 30° C. and then stained with Alexa 647 (goat anti-mouse IgM) for 30 minutes at RT. The cells were quantified with an LSR flow cytometer using 30,000 cells per measurement.
(§5) The effect of S-TBS on talin-induced activation of integrin αIIbβ3 was examined. CHO-A5 cells that stably express integrin αIIbβ3 were transfected with a green fluorescent protein-tagged talin head domain, treated with S-TBS or TBS, and then subjected flow cytometry analysis for integrin αIIbβ3 activity. […]
(§6) Integrin activation assays: CHO-A5 cells were transfected with talin-head domain, wild-type or W359A, and incubated for 24 hours at 37° C. […] The cells were quantified with a Beckton, Dickenson & Co. Biosciences LSR flow cytometer (660/20 filter, 640 nm laser) using 30,000 cells per measurement.

The test system of a further data set is Jurkat T-cell. Kind of data set: Cell toxicity, Jurkat T-cell growth. In kind it is cell-based.
The subject of data set [3] is integrin αIIbβ3. Kind of data set: Integrin activation assay, wild-type talin head domain. In kind it is cell-based. The conditions noted are these: CHO-A5 cells expressing GFP-tagged wild-type talin head domain; TBS 100 μM, S-TBS 10 and 100 μM, 30 minutes; PAC1 flow cytometry. The procedure:
as §4, §5, §6

Each structure is given as a SMILES string. “Also recorded” adds a separate entry of the source. Bridge positions count the residues as written; N and C are the ends. Square brackets hold non-standard residues; d marks the D form. Peptide text beside a SMILES is read from it. S5 = C=CCCC[C@](C)(N)C(=O)O

T1 sequence (P26039 1359-1659 limits assumed): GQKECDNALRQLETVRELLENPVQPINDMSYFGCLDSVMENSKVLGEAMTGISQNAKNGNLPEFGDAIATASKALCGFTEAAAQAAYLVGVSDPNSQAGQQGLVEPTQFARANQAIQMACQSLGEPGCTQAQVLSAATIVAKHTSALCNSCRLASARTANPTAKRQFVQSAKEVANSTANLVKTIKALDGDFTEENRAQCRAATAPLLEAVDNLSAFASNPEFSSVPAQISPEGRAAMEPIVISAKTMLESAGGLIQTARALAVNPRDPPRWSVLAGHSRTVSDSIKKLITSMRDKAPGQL

Regarding `CC[C@H](C)[C@H](NC(=O)[C@H](CC(=O)O)NC(=O)[C@H](CCC(=O)O)NC(=O)[C@@H](N)CC(N)=O)C(=O)N[C@@H](CC(=O)O)C(=O)N[C@@H](CCC(N)=O)C(=O)N[C@@H](CCSC)C(=O)N[C@@H](Cc1ccccc1)C(=O)N[C@@H](CO)C(=O)N[C@H](C(=O)N[C@@H](CC(C)C)C(=O)N[C@@H](CC(C)C)C(=O)NCC(=O)N[C@@H](CCC(=O)O)C(=O)N[C@@]1(C)CCCC=CCCC[C@@](C)(C(=O)N[C@@H](CCC(N)=O)C(=O)N[C@@H](CO)C(=O)O)NC(=O)[C@H](CC(C)C)NC(=O)[C@H](CC(C)C)NC(=O)[C@H](CC(=O)O)NC1=O)[C@@H](C)O` [S-TBS, (Stp(15,19))H2N-NEDIDQMFSTLLGE(S5)DLL(S5)QS-OH] (H-NEDIDQMFSTLLGE[S5]DLL[S5]QS-OH; staple 15-19), the “cell toxicity (viability / cell growth), MCF-7” value in the data set with MCF-7 cells is “No impact; also recorded: minimal cell toxicity”. At talin rod R7R8 domains, the “fold stronger binding to R7R8 than TBS” value amounted to 6 fold. Also, the “cell toxicity (viability / cell growth), HEK” value in the data set on HEK-293 cells is listed as “No impact; also recorded: minimal cell toxicity”. The Kd in data set [1] (FP assay, fluorophore-labeled peptide, purified recombinant talin head (residues 1-430), read-out: Kd, talin head domain) was 30.3 ± 4.8 µM. Also, the “fold stronger binding to talin head than TBS” value in data set [1] (S-TBS versus TBS, from FP Kd values) was 3.5 fold. The “impact on CHO cell growth” value in the data set on CHO cell is “no impact”. Further, the “cell toxicity (viability / cell growth), HeLa” value with HeLa cells is listed as “No impact; also recorded: minimal cell toxicity”. The “fluorescence signal of treated cells (peptide uptake) compared with fluorophore-labelled TBS” value in the data set with CHO-A5 cells (CHO cells, 1, 10 and 50 μM, 30 minutes at 37° C., FITC-labeled S-TBS) is on record as “significantly stronger signal”. Moreover, in the data set with CHO-A5 cells (CHO-A5 cells, lower doses, flow cytometry permeability index, fluorophore-labelled peptides), the “concentration giving significant cell uptake” value amounted to 500 nM. Besides, the “integrin αIIbβ3 activity with inactive talin head THD-W359A” value in the data set with integrin αIIbβ3 [2] was “No inhibitory effect”. Also, the “impact on Jurkat T-cell growth” value with Jurkat T-cell is on record as “no impact”. Besides, in the data set with integrin αIIbβ3 [3], the “integrin αIIbβ3 activity (talin-induced activation)” value is given as “significantly suppresses integrin αIIbβ3 activity in a dose-dependent manner”.

One may read the Kd as the equilibrium constant for the complex coming apart.

The record behind these values is patent US20240360186A1, “Treatment Of Integrin-Related Disorders With Stapled Peptides” (Institute For Cancer Research d/b/a The Research Institute …, priority 2021, published 2024).
